Measured values as given in patent US20230322761A1, “DEGRADATION OF BRUTON'S TYROSINE KINASE (BTK) BY CONJUGATION OF BTK INHIBITORS WITH E3 LIGASE LIGAND AND METHODS OF USE” (BEIGENE, LTD., priority 2020, published 2023).

molecular target: T1, BTK (Homo sapiens, UniProt Q06187); experiment: BTK degradation in TMD-8 cells, HTRF assay after 6 h treatment; assay type: cell-based; conditions: IC50 (DC50) of BTK degradation
T1 construct: endogenous in cells; host or cells: TMD-8 cells
Method in brief: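 TMD-8 cells treated for 6 h with 8 compound doses in 6-fold dilution steps from a 1 mM 500× DMSO stock (0.2% DMSO), then lysed 30 min at room temperature. BTK in lysate detected by HTRF (665/620 nm) after overnight antibody incubation; DC50 from four-parameter curve fit.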

T1 sequence (Q06187 whole entry): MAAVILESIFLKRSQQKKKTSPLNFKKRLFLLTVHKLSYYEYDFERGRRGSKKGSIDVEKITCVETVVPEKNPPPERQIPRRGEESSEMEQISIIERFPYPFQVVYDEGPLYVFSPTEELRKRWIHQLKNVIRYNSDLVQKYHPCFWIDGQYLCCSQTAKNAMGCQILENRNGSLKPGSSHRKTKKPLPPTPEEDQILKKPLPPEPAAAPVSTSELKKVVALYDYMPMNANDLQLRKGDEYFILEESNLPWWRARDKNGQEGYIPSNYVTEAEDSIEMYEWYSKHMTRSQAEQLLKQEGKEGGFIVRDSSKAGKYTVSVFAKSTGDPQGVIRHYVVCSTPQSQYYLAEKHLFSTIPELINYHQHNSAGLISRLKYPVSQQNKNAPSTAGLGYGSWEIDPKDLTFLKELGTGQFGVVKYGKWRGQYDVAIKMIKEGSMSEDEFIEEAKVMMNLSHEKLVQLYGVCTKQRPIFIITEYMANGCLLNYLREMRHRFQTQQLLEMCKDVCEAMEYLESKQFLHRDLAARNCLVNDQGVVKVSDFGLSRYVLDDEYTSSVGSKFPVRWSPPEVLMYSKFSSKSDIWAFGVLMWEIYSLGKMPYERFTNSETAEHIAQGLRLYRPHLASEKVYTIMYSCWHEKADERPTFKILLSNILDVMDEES

| DC50 [nM] | Structure (SMILES) |
| --- | --- |
| 6.13 | COc1nc(CCN2CCN(c3ccc(-c4cnc5[nH]nc(-c6ccc([C@@H](C)NC(=O)c7nc(C(C)(C)C)no7)c(C)c6)c5c4)cc3)CC2)ccc1C1CCC(=O)NC1=O (stereo partly drawn) [Example 195, 3-(tert-butyl)-N-((1R)-1-(4-(5-(4-(4-(2-(5-(2,6-dioxopiperidin-3-yl)-6-methoxypyridin-2-yl)ethyl)piperazin-1-yl)phenyl)-1H-pyrazolo[3,4-b]pyridin-3-yl)-2-methylphenyl)ethyl)-1,2,4-oxadiazole-5-carboxamide] |
| 1.9 | Cc1cc(-c2n[nH]c3ncc(-c4ccc(C5CCN(CCc6ccc(C7CCC(=O)NC7=O)cc6)CC5)cc4)cc23)ccc1CNC(=O)c1nc(C(C)(C)C)no1 (stereo not drawn) [Example 9, 3-(tert-butyl)-N-(4-(5-(4-(1-(4-(2,6-dioxopiperidin-3-yl)phenethyl)piperidin-4-yl)phenyl)-1H-pyrazolo[3,4-b]pyridin-3-yl)-2-methylbenzyl)-1,2,4-oxadiazole-5-carboxamide] |
| 7.32 | Cc1cc(CCN2CCN(c3ccc(-c4cnc5[nH]nc(-c6ccc([C@@H](C)NC(=O)c7noc(C(C)(C)C)n7)c(C)c6)c5c4)cc3)CC2)ccc1C1CCC(=O)NC1=O (stereo partly drawn) [Example 40, 5-(tert-butyl)-N-((1R)-1-(4-(5-(4-(4-(4-(2,6-dioxopiperidin-3-yl)-3-methylphenethyl)piperazin-1-yl)phenyl)-1H-pyrazolo[3,4-b]pyridin-3-yl)-2-methylphenyl)ethyl)-1,2,4-oxadiazole-3-carboxamide] |
| 0.736 | Cc1cc(-c2n[nH]c3ncc(-c4ccc(C5(F)CCN(CC6CCN(c7ccc(N8CCC(=O)NC8=O)cc7)CC6)CC5)cn4)cc23)ccc1[C@@H](C)NC(=O)c1nc(C(C)(C)C)no1 [Example 205, (R)-3-(tert-butyl)-N-(1-(4-(5-(5-(1-((1-(4-(2,4-dioxotetrahydropyrimidin-1(2H)-yl)phenyl)piperidin-4-yl)methyl)-4-fluoropiperidin-4-yl)pyridin-2-yl)-1H-pyrazolo[3,4-b]pyridin-3-yl)-2-methylphenyl)ethyl)-1,2,4-oxadiazole-5-carboxamide] |
| 91.4 | Cc1cc(-c2n[nH]c3ncc(-c4ccc(N5CCC(COc6ccc(OC7CCC(=O)NC7=O)cc6)CC5)cc4)cc23)ccc1[C@@H](C)NC(=O)c1noc(C(C)(C)C)n1 (stereo partly drawn) [Example 198, 5-(tert-butyl)-N-((1R)-1-(4-(5-(4-(4-((4-((2,6-dioxopiperidin-3-yl)oxy)phenoxy)methyl)piperidin-1-yl)phenyl)-1H-pyrazolo[3,4-b]pyridin-3-yl)-2-methylphenyl)ethyl)-1,2,4-oxadiazole-3-carboxamide] |
| 5.09 | Cc1cc(-c2n[nH]c3ncc(-c4ccc(N5CCN(CCc6ccc(C7CCC(=O)NC7=O)c(F)c6)CC5)nc4)cc23)ccc1[C@@H](C)NC(=O)c1noc(C(C)(C)C)n1 (stereo partly drawn) [Example 199, 5-(tert-butyl)-N-((1R)-1-(4-(5-(6-(4-(4-(2,6-dioxopiperidin-3-yl)-3-fluorophenethyl)piperazin-1-yl)pyridin-3-yl)-1H-pyrazolo[3,4-b]pyridin-3-yl)-2-methylphenyl)ethyl)-1,2,4-oxadiazole-3-carboxamide] |
| 8.6 | Cc1cc(-c2n[nH]c3ncc(-c4ccc(N5CCN(CC6CCN(c7cccc(N8CCC(=O)NC8=O)c7)CC6)CC5)cc4)cc23)ccc1[C@@H](C)NC(=O)c1noc(C(C)(C)C)n1 [Example 138, (R)-5-(tert-butyl)-N-(1-(4-(5-(4-(4-((1-(3-(2,4-dioxotetrahydropyrimidin-1(2H)-yl)phenyl)piperidin-4-yl)methyl)piperazin-1-yl)phenyl)-1H-pyrazolo[3,4-b]pyridin-3-yl)-2-methylphenyl)ethyl)-1,2,4-oxadiazole-3-carboxamide] |
| 1.03 | Cc1cc(-c2n[nH]c3ncc(-c4ccc(C5CCN(CCc6ccc([C@H]7CCC(=O)NC7=O)cc6)CC5)nc4)cc23)ccc1[C@@H](C)NC(=O)c1noc(C(C)(C)C)n1 [Example 152, 5-(tert-butyl)-N—((R)-1-(4-(5-(6-(1-(4-((R)-2,6-dioxopiperidin-3-yl)phenethyl)piperidin-4-yl)pyridin-3-yl)-1H-pyrazolo[3,4-b]pyridin-3-yl)-2-methylphenyl)ethyl)-1,2,4-oxadiazole-3-carboxamide] |
| 3.47 | Cc1nc(CCN2CCN(c3ccc(-c4cnc5[nH]nc(-c6ccc([C@@H](C)NC(=O)c7nc(C(C)(C)C)no7)c(CO)c6)c5c4)cc3)CC2)ccc1C1CCC(=O)NC1=O (stereo partly drawn) [Example 177, 3-(tert-butyl)-N-((1R)-1-(4-(5-(4-(4-(2-(5-(2,6-dioxopiperidin-3-yl)-6-methylpyridin-2-yl)ethyl)piperazin-1-yl)phenyl)-1H-pyrazolo[3,4-b]pyridin-3-yl)-2-(hydroxymethyl)phenyl)ethyl)-1,2,4-oxadiazole-5-carboxamide] |
| 2.68 | Cc1cc(-c2n[nH]c3ncc(-c4ccc(N5CCN(CC6CCN(c7ccc(N8CCC(=O)NC8=O)c(C)c7)CC6)CC5)cc4)cc23)ccc1[C@@H](C)NC(=O)c1nc(C(C)(C)C)no1 [Example 98, (R)-3-(tert-butyl)-N-(1-(4-(5-(4-(4-((1-(4-(2,4-dioxotetrahydropyrimidin-1(2H)-yl)-3-methylphenyl)piperidin-4-yl)methyl)piperazin-1-yl)phenyl)-1H-pyrazolo[3,4-b]pyridin-3-yl)-2-methylphenyl)ethyl)-1,2,4-oxadiazole-5-carboxamide] |

The next lines start with the molecule.

| Structure (SMILES) | DC50 [nM] |
| --- | --- |
| CC(C)(C)c1nc(C(=O)NCc2ccc(-c3n[nH]c4ncc(-c5ccc(N6CCN(CC7CCN(c8ccc(N9CCC(=O)NC9=O)cc8)CC7)CC6)cc5)cc34)cc2CO)no1 [Example 121, 5-(tert-butyl)-N-(4-(5-(4-(4-((1-(4-(2,4-dioxotetrahydropyrimidin-1(2H)-yl)phenyl)piperidin-4-yl)methyl)piperazin-1-yl)phenyl)-1H-pyrazolo[3,4-b]pyridin-3-yl)-2-(hydroxymethyl)benzyl)-1,2,4-oxadiazole-3-carboxamide] | 2.39 |
| Cc1cc(-c2n[nH]c3ncc(-c4ccc(C5CCN(CCC6CCN(c7ccc(N8CCC(=O)NC8=O)cc7)CC6)CC5)cc4)cc23)ccc1CNC(=O)c1nc(C(C)(C)C)no1 [Example 5, 3-(tert-butyl)-N-(4-(5-(4-(1-(2-(1-(4-(2,4-dioxotetrahydropyrimidin-1(2H)-yl)phenyl)piperidin-4-yl)ethyl)piperidin-4-yl)phenyl)-1H-pyrazolo[3,4-b]pyridin-3-yl)-2-methylbenzyl)-1,2,4-oxadiazole-5-carboxamide] | 1.55 |
| Cc1cc(-c2n[nH]c3ncc(-c4ccc(C5CCN(CC6CCN(c7ccc(N8CCC(=O)NC8=O)cc7)CC6)CC5)cn4)cc23)ccc1[C@@H](C)NC(=O)c1noc(C(C)(C)C)n1 [Example 72, (R)-5-(tert-butyl)-N-(1-(4-(5-(5-(1-((1-(4-(2,4-dioxotetrahydropyrimidin-1(2H)-yl)phenyl)piperidin-4-yl)methyl)piperidin-4-yl)pyridin-2-yl)-1H-pyrazolo[3,4-b]pyridin-3-yl)-2-methylphenyl)ethyl)-1,2,4-oxadiazole-3-carboxamide] | 1.21 |
| Cc1cc(-c2n[nH]c3ncc(-c4ccc(N5CCN(CC6CCN(c7ccc(N8CCC(=O)NC8=O)cc7)CC6)CC5)cn4)cc23)ccc1CNC(=O)c1noc(C(C)(C)C)n1 [Example 66, 5-(tert-butyl)-N-(4-(5-(5-(4-((1-(4-(2,4-dioxotetrahydropyrimidin-1(2H)-yl)phenyl)piperidin-4-yl)methyl)piperazin-1-yl)pyridin-2-yl)-1H-pyrazolo[3,4-b]pyridin-3-yl)-2-methylbenzyl)-1,2,4-oxadiazole-3-carboxamide] | 5.32 |
| Cc1cc(-c2n[nH]c3ncc(-c4ccc(N5CCN(CC6CCN(c7ccc(N8CCC(=O)NC8=O)cc7)CC6)CC5)cc4)cc23)ccc1[C@@H](C)NC(=O)c1ccc(C(C)(C)O)cc1F [Example 96, (R)—N-(1-(4-(5-(4-(4-((1-(4-(2,4-dioxotetrahydropyrimidin-1(2H)-yl)phenyl)piperidin-4-yl)methyl)piperazin-1-yl)phenyl)-1H-pyrazolo[3,4-b]pyridin-3-yl)-2-methylphenyl)ethyl)-2-fluoro-4-(2-hydroxypropan-2-yl)benzamide] | > 2000 |
| Cc1cc(-c2n[nH]c3ncc(-c4ccc(C5CCN(C6CC(c7ccc(C8CCC(=O)NC8=O)cc7)C6)CC5)nc4)cc23)ccc1[C@@H](C)NC(=O)c1noc(C(C)(C)C)n1 (stereo partly drawn) [Example 197, 5-(tert-butyl)-N-((1R)-1-(4-(5-(6-(1-(3-(4-(2,6-dioxopiperidin-3-yl)phenyl)cyclobutyl)piperidin-4-yl)pyridin-3-yl)-1H-pyrazolo[3,4-b]pyridin-3-yl)-2-methylphenyl)ethyl)-1,2,4-oxadiazole-3-carboxamide] | 1.08 |
| COc1ccc(C(=O)N2CCC(c3ccc(-c4cnc5[nH]nc(-c6ccc(CNC(=O)c7nc(C(C)(C)C)no7)c(F)c6)c5c4)cc3)CC2)cc1N1CCC(=O)NC1=O [Example 18, 3-(tert-butyl)-N-(4-(5-(4-(1-(3-(2,4-dioxotetrahydropyrimidin-1(2H)-yl)-4-methoxybenzoyl)piperidin-4-yl)phenyl)-1H-pyrazolo[3,4-b]pyridin-3-yl)-2-fluorobenzyl)-1,2,4-oxadiazole-5-carboxamide] | > 2000 |
| Cc1cc(-c2n[nH]c3ncc(-c4ccc(N5CCN(CC6CCN(c7ccc(N8CCC(=O)NC8=O)cc7)CC6)CC5)cc4)cc23)ccc1CNC(=O)c1noc(C2(C(F)(F)F)CC2)n1 [Example 42, N-(4-(5-(4-(4-((1-(4-(2,4-dioxotetrahydropyrimidin-1(2H)-yl)phenyl)piperidin-4-yl)methyl)piperazin-1-yl)phenyl)-1H-pyrazolo[3,4-b]pyridin-3-yl)-2-methylbenzyl)-5-(1-(trifluoromethyl)cyclopropyl)-1,2,4-oxadiazole-3-carboxamide] | 22.8 |

same assay, conditions: TMD8, maximum percentage of inhibition (degradation)

| Dmax [%] | Structure (SMILES) |
| --- | --- |
| 100 | Cc1cc(-c2n[nH]c3ncc(-c4ccc(C5CCN(CCc6ccc(C7CCC(=O)NC7=O)cc6)CC5)cc4)cc23)ccc1CNC(=O)c1nc(C(C)(C)C)no1 (stereo not drawn) [Example 9, 3-(tert-butyl)-N-(4-(5-(4-(1-(4-(2,6-dioxopiperidin-3-yl)phenethyl)piperidin-4-yl)phenyl)-1H-pyrazolo[3,4-b]pyridin-3-yl)-2-methylbenzyl)-1,2,4-oxadiazole-5-carboxamide] |
| 97 | Cc1cc(-c2n[nH]c3ncc(-c4ccc(C5CCN(CCC6CCN(c7ccc(N8CCC(=O)NC8=O)cc7)CC6)CC5)cc4)cc23)ccc1CNC(=O)c1nc(C(C)(C)C)no1 [Example 5, 3-(tert-butyl)-N-(4-(5-(4-(1-(2-(1-(4-(2,4-dioxotetrahydropyrimidin-1(2H)-yl)phenyl)piperidin-4-yl)ethyl)piperidin-4-yl)phenyl)-1H-pyrazolo[3,4-b]pyridin-3-yl)-2-methylbenzyl)-1,2,4-oxadiazole-5-carboxamide] |
| 3.39 | COc1ccc(C(=O)N2CCC(c3ccc(-c4cnc5[nH]nc(-c6ccc(CNC(=O)c7nc(C(C)(C)C)no7)c(F)c6)c5c4)cc3)CC2)cc1N1CCC(=O)NC1=O [Example 18, 3-(tert-butyl)-N-(4-(5-(4-(1-(3-(2,4-dioxotetrahydropyrimidin-1(2H)-yl)-4-methoxybenzoyl)piperidin-4-yl)phenyl)-1H-pyrazolo[3,4-b]pyridin-3-yl)-2-fluorobenzyl)-1,2,4-oxadiazole-5-carboxamide] |
